Earlier results, collected in patent US6159733A, “Method for photoinactivating malignant cells” (priority 1996, dated 2000).
Like-named read-outs stand apart in the source and are kept apart here.

Assays:
cell types = settings: cited from earlier work
CFU-GM = settings: cited from earlier work
BFU-E = settings: cited from earlier work
cancer cell = settings: conditions of the CFU-GM/BFU-E survival data; cited from earlier work
[1] = tested on: multidrug resistance (mdr) pump; settings: cited from earlier work
[2] = tested on: cell lines in BM mixtures; settings: cited from earlier work
malignant cells = settings: cited from earlier work
pluripotent stem cells = settings: Sieber, Photochem Photobiol. 46:71 (1987); cited from earlier work
[3] = Atzpodien, Cancer Res. 46:4892 (1986)

## Photofrin
Cell types; Williams, Photochem. Photobiol. 46:733 (1987)
  relation of uptake and photosensitivity: increased uptake resulted in increased photosensitivity for each cell type
Cell types; despite significant differences in photosensitizer uptake
  differences in photoinactivation between cell types: marginal differences in photoinactivation

## benzoporphyrinderivative monoacid ring A [BPD-MA]
CFU-GM; cfu-gm
  surviving fraction of CFU-GM: 0.04
BFU-E; bfu-e
  surviving fraction of BFU-E: 0.05
Cancer cell
  reduction of cancer cell survival: 4-5 log10

## COc1ccc(CCN(C)CCCC(C#N)(c2ccc(OC)c(OC)c2)C(C)C)cc1OC (stereo not drawn) [verapamil]
[1]
  inhibition of the multidrug resistance (mdr) pump: known inhibitor

## sulphonate aluminum phthalocyanine [AlSPc]
CFU-GM; cfu-gm
  surviving fraction of CFU-GM: 0.60
[2]; BM fraction=0.99
  photoinactivation of cell lines mixed with BM: photoinactivated as effectively as unmixed cell lines
Malignant cells
  photoinactivation of malignant cells: successfully achieved
Cancer cell
  reduction of cancer cell survival: 4-5 log10

## CCCCN1C(=O)C(=CC=CC=C2Oc3ccccc3N2CCCS(=O)(=O)O)C(=O)N(CCCC)C1=S [MC 540, merocyanine-540]
Pluripotent stem cells
  depletion of murine pluripotent stem cells: 1 log10
CFU-GM; [3]
  surviving fraction of CFU-GM: 0.18
CFU-GM; Gulliya, Blood 73:1059 (1989)
  surviving fraction of CFU-GM: 0.17
BFU-E; [3]
  surviving fraction of BFU-E: 0.14
BFU-E; Gulliya, Blood 73:1059 (1989)
  surviving fraction of BFU-E: 0.04
[2]; BM fraction=0.95-0.99
  photoinactivation of cell lines mixed with BM: more effectively inactivated in mixtures
Malignant cells
  photoinactivation of malignant cells: successfully achieved
Cancer cell
  reduction of cancer cell survival: 4-5 log10

## dihematoporphyrin ether [DHE]
CFU-GM; Atzpodien, Blood 70:484 (1987)
  surviving fraction of CFU-GM: 0.29
CFU-GM; Lemoli, Blood 81:793 (1993)
  surviving fraction of CFU-GM: 0.05
BFU-E; Atzpodien, Blood 70:484 (1987)
  surviving fraction of BFU-E: 0.47
BFU-E; Lemoli, Blood 81:793 (1993)
  surviving fraction of BFU-E: 0.10
Malignant cells
  photoinactivation of malignant cells: successfully achieved
Cancer cell
  reduction of cancer cell survival: 4-5 log10
